Laboratory results: US20060004002A1 (priority 2004, published 2006)

Target: T1, Recombinant human Src (Homo sapiens, UniProt P12931)
T1 construct: made in house; host or cells: baculovirus-insect cell system
Test: Src tyrosine kinase activity assay with poly E4Y and 32P-ATP
Type: biochemical
Details: poly E4Y, 32P-ATP; NI = no inhibition; read-out: IC50 Value Src
Method: Recombinant human Src was expressed using the baculovirus-insect cell system and purified as published (Budde et al., 1993 and 2000). Recombinant Csk and the FGF receptor (FGFr) were expressed as […] fusion proteins using the pGEX expression vector and E. coli, and purified as described (Sun & Budde, 1995).
The tyrosine kinase activity of Src, Csk and FGFr was determined using poly E4Y and ^32P-ATP. Briefly, enzymes were assayed in a reaction mixture […] consisting of 0.15 M EPPS-NaOH (pH 8.0) with 6 mM MgCl2, 0.2 mM γ^32P-ATP (0.2-0.4 mCi/μmol), 10% glycerol, 0.1% Triton X-100, and poly E4Y. Poly E4Y is a synthetic peptide whose phosphorylation is measured in this assay by the addition of the radioactively labeled phosphate from the ATP (Budde et al., 1995). […] When ATP was varied (0, 50, 100 and 250 μM), poly E4Y was kept constant at 150 μg/ml.

T1 sequence (P12931 whole entry): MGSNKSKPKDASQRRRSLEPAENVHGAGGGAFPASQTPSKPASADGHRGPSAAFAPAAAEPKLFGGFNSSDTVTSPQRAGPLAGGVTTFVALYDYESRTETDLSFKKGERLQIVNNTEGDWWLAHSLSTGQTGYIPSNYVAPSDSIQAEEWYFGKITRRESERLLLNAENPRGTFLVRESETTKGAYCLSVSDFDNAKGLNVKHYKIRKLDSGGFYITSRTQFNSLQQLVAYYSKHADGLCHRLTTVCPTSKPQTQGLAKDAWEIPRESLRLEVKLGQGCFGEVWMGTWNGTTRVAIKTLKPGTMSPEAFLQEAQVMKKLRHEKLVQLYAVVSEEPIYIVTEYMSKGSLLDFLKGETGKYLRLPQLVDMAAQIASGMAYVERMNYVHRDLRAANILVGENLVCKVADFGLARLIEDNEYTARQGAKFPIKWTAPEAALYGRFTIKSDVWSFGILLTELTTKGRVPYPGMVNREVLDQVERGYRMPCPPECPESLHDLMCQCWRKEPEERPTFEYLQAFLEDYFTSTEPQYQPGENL

How did the IC50 turn out when `Cc1c(-c2cccc(C#N)c2)sc2c(NN=Cc3ccc(C(=O)O)cc3)ncnc12` [Compound 30, 4-Carboxybenzaldehyde (6-(3-cyanophenyl)-7-methylthieno[3,2-d]pyrimidin-4-yl)hydrazone] was run?
Its IC50 is 160 nM.

`COc1ccc(C=NNc2ncnc3c(C)c(-c4ccccc4C#N)sc23)cc1O` [Compound 31, 3-Hydroxy-4-methoxybenzaldehyde (6-(2-cyanophenyl)-7-methylthieno[3,2-d]pyrimidin-4-yl)hydrazone] was tested. Which IC50 did it give?
Its IC50 is 74 nM.

Which IC50 does the source give for `Cc1c(-c2cccc(C(=N)N)c2)sc2c(NN=Cc3cccnc3)ncnc12` [Compound 32] here?
The IC50 was 41 nM.

`COc1ccc(C=NNc2ncnc3c(C)c(-c4ccc(F)cc4)sc23)cc1O` [Compound 36, 3-Hydroxy-4-methoxybenzaldehyde (6-(4-fluorophenyl)-7-methylthieno[3,2-d]pyrimidin-4-yl)hydrazone] was tested. Which IC50 did it give?
The IC50 was 57 nM.

`COc1ccc(C=NNc2ncnc3c(C)c(-c4ccc(O)cc4)sc23)cc1O` [Compound 38, 3-Hydroxy-4-methoxybenzaldehyde (6-(4-hydroxyphenyl)-7-methylthieno[3,2-d]pyrimidin-4-yl)hydrazone] was tested. Which IC50 did it give?
The IC50 was 15 nM.

How did the IC50 turn out when `CCOc1ccccc1-c1sc2c(NN=Cc3ccc(OC)c(O)c3)ncnc2c1OC` [Compound 40, 3-Hydroxy-4-methoxybenzaldehyde (6-(2-ethoxyphenyl)-7-methoxythieno[3,2-d]pyrimidin-4-yl)hydrazone] was run?
Its IC50 is 22 nM.

How did the IC50 turn out when `CCOc1ccccc1-c1sc2c(NN=Cc3ccc(OC)c(O)c3)ncnc2c1OCCN1CCOCC1` [Compound 41, 3-Hydroxy-4-methoxybenzaldehyde (6-(2-ethoxyphenyl)-7-(2-(morpholin-4-yl)-ethoxy)thieno[3,2-d]pyrimidin-4-yl)hydrazone] was run?
The IC50 was 340 nM.

`CCOCc1c(-c2ccccc2OCC)sc2c(NN=Cc3ccc(OC)c(O)c3)ncnc12` [Compound 44] was tested. Which IC50 did it give?
The IC50 was 79 nM.

Which IC50 does the source give for `CCNc1ccc(-c2sc3c(NN=Cc4ccc(OC)c(O)c4)ncnc3c2C)cc1` [Compound 48, 3-Hydroxy-4-methoxybenzaldehyde (6-(4-N-ethylaminophenyl)-7-methylthieno[3,2-d]pyrimidin-4-yl)hydrazone] here?
The IC50 was 64 nM.

How did the IC50 turn out when `CCOc1ccccc1-c1sc2c(NN=Cc3ccc(OC)c(OC)c3)ncnc2c1C` [Compound 53, 3,4-Dimethoxybenzaldehyde (6-(2-ethoxyphenyl)-7-methylthieno[3,2-d]pyrimidin-4-yl)hydrazone] was run?
Its IC50 is 4.6 nM.

`CCOc1ccccc1-c1sc2c(NN=Cc3ccc(O)c(OC)c3)ncnc2c1C` [Compound 55] was tested. Which IC50 did it give?
The IC50 was 3.3 nM.

With `CCOc1cc(F)ccc1-c1sc2c(NN=Cc3ccc(OC)c(O)c3)ncnc2c1C` [Compound 57, 3-Hydroxy-4-methoxybenzaldehyde (6-(2-ethoxy-4-fluorophenyl)-7-methylthieno[3,2-d]pyrimidin-4-yl)hydrazone] as the molecule, how does the IC50 read?
The IC50 was 4.9 nM.

Which IC50 does the source give for `CCOc1cc(F)ccc1-c1sc2c(NN=Cc3ccc(OC)c(O)c3)ncnc2c1O` [Compound 61, 3-Hydroxy-4-methoxybenzaldehyde (6-(2-ethoxy-4-fluorophenyl)-7-hydroxythieno[3,2-d]pyrimidin-4-yl)hydrazone] here?
Its IC50 is 6 nM.

`CCOc1ccccc1-c1sc2c(NN=Cc3cc(OC)c(OC)c(OC)c3)ncnc2c1C` [Compound 63, 3,4,5-Trimethoxybenzaldehyde (6-(2-ethoxyphenyl)-7-methylthieno[3,2-d]pyrimidin-4-yl)hydrazone] was tested. Which IC50 did it give?
Its IC50 is 1.3 nM.

Which IC50 does the source give for `CCOc1ccccc1-c1sc2c(NN=Cc3cc(O)c(OC)c(OC)c3)ncnc2c1C` [Compound 64, 3,4-Dimethoxy-5-hydroxybenzaldehyde (6-(2-ethoxyphenyl)-7-methylthieno[3,2-d]pyrimidin-4-yl)hydrazone] here?
The IC50 was 1.2 nM.

For `CCOc1ccccc1-c1sc2c(NN=Cc3cc(OC)c(O)c(OC)c3)ncnc2c1C` [Compound 65, 3,5-Dimethoxy-4-hydroxybenzaldehyde (6-(2-ethoxyphenyl)-7-methylthieno[3,2-d]pyrimidin-4-yl)hydrazone], which IC50 is on record?
The IC50 was 0.99 nM.

Which IC50 does the source give for `CCOc1ccccc1-c1sc2c(NN=Cc3ccc4c(c3)OCCO4)ncnc2c1C` [Compound 66, 2,3-Dihydro-benzo[1,4]dioxine-6-carbaldehyde (6-(2-ethoxyphenyl)-7-methylthieno[3,2-d]pyrimidin-4-yl)hydrazone] here?
The IC50 was 6.4 nM.

For `CCOc1ccccc1-c1sc2c(NN=Cc3cccnc3)ncnc2c1CO` [Compound 70, 3-Pyridinecarboxaldehyde (6-(2-ethoxyphenyl)-7-hydroxymethylthieno[3,2-d]pyrimidin-4-yl)hydrazone], which IC50 is on record?
Its IC50 is 20 nM.

For `CCOc1ccccc1-c1sc2c(NN=Cc3cccs3)ncnc2c1CO` [Compound 71, 2-Thiophenecarboxaldehyde (6-(2-ethoxyphenyl)-7-hydroxymethylthieno[3,2-d]pyrimidin-4-yl)hydrazone], which IC50 is on record?
Its IC50 is 28 nM.

Which IC50 does the source give for `CCOc1ccccc1-c1sc2c(NN=Cc3ccc(C(=O)O)cc3)ncnc2c1CO` [Compound 72, 4-Carboxybenzaldehyde (6-(2-ethoxyphenyl)-7-hydroxymethylthieno[3,2-d]pyrimidin-4-yl)hydrazone] here?
The IC50 was 32 nM.

`CCOc1ccccc1-c1sc2c(NN=Cc3cccnc3)ncnc2c1O` [Compound 73, 3-Pyridinecarboxaldehyde (6-(2-ethoxyphenyl)-7-hydroxythieno[3,2-d]pyrimidin-4-yl)hydrazone] was tested. Which IC50 did it give?
The IC50 was 3 nM.

For `CCOc1ccccc1-c1sc2c(NN=Cc3ccc(C(=O)O)cc3)ncnc2c1O` [Compound 74, 4-Carboxybenzaldehyde (6-(2-ethoxyphenyl)-7-hydroxythieno[3,2-d]pyrimidin-4-yl)hydrazone], which IC50 is on record?
The IC50 was 0.29 nM.

`Cc1c(-c2ccc(O)cc2)sc2c(NN=Cc3cccnc3)ncnc12` [Compound 75, 3-Pyridinecarboxaldehyde (6-(4-hydroxyphenyl)-7-methylthieno[3,2-d]pyrimidin-4-yl]hydrazone] was tested. Which IC50 did it give?
Its IC50 is 21 nM.

`Cc1c(-c2ccc(O)cc2)sc2c(NN=Cc3ccc(C(=O)O)cc3)ncnc12` [Compound 76, 4-Carboxybenzaldehyde (6-(4-hydroxyphenyl)-7-methylthieno[3,2-d]pyrimidin-4-yl]hydrazone] was tested. Which IC50 did it give?
Its IC50 is 41 nM.

`CCOc1ccccc1-c1sc2c(NN=Cc3ccccc3Cl)ncnc2c1C` [Compound 77, 2-Chlorobenzaldehyde (6-(2-ethoxyphenyl)-7-methylthieno[3,2-d]pyrimidin-4-yl)hydrazone] was tested. Which IC50 did it give?
Its IC50 is 1400 nM.

How did the IC50 turn out when `CCOc1ccccc1-c1sc2c(NN=Cc3ccccc3F)ncnc2c1C` [Compound 78, 2-Fluorobenzaldehyde (6-(2-ethoxyphenyl)-7-methylthieno[3,2-d]pyrimidin-4-yl)hydrazone] was run?
Its IC50 is 0.84 nM.

`CCOc1ccccc1-c1sc2c(NN=Cc3ccc(OC)cc3OC)ncnc2c1C` [Compound 79, 2,4-Dimethoxybenzaldehyde (6-(2-ethoxyphenyl)-7-methylthieno[3,2-d]pyrimidin-4-yl)hydrazone] was tested. Which IC50 did it give?
Its IC50 is 250 nM.

How did the IC50 turn out when `C=CCOc1ccccc1-c1sc2c(NN=Cc3ccc(OC)c(O)c3)ncnc2c1C` [Compound 80, 3-Hydroxy-4-methoxybenzaldehyde (6-(2-allyloxyphenyl)-7-methylthieno[3,2-d]pyrimidin-4-yl)hydrazone] was run?
Its IC50 is 6.5 nM.

`Cc1c(-c2ccccc2OCc2ccccc2)sc2c(NN=Cc3cccnc3)ncnc12` [Compound 82, 3-Pyridinecarboxaldehyde (6-(2-benzyloxyphenyl)-7-methylthieno[3,2-d]pyrimidin-4-yl)hydrazone] was tested. Which IC50 did it give?
Its IC50 is 3900 nM.

How did the IC50 turn out when `CCCOc1ccccc1-c1sc2c(NN=Cc3ccc(OC)c(O)c3)ncnc2c1C` [Compound 83, 3-Hydroxy-4-methoxybenzaldehyde (7-methyl-6-(2-propoxyphenyl)thieno[3,2-d]pyrimidin-4-yl)hydrazone] was run?
The IC50 was 29 nM.

Which IC50 does the source give for `CCOc1ccccc1-c1sc2c(NN=Cc3ccsc3)ncnc2c1O` [Compound 93, 3-Thiophenecarboxaldehyde (6-(2-ethoxyphenyl)-7-hydroxythieno[3,2-d]pyrimidin-4-yl)hydrazone] here?
The IC50 was 2.8 nM.

How did the IC50 turn out when `CCOc1ccccc1-c1sc2c(NN=Cc3ncc[nH]3)ncnc2c1O` [Compound 97, 2-Imidazolecarboxaldehyde (6-(2-ethoxyphenyl)-7-hydroxythieno[3,2-d]pyrimidin-4-yl)hydrazone] was run?
The IC50 was 55 nM.

How did the IC50 turn out when `CCOc1cc(F)ccc1-c1sc2c(NN=Cc3cccs3)ncnc2c1C` [Compound 106, 2-Thiophenecarboxaldehyde (6-(2-ethoxy-4-fluorophenyl)-7-methythieno[3,2-d]pyrimidin-4-yl)hydrazone] was run?
The IC50 was 9.5 nM.

How did the IC50 turn out when `CCOc1cc(F)ccc1-c1sc2c(NN=Cc3cccs3)ncnc2c1CO` [Compound 107, 2-Thiophenecarboxaldehyde (6-(2-ethoxy-4-fluorophenyl)-7-hydroxymethylthieno[3,2-d]pyrimidin-4-yl)hydrazone] was run?
The IC50 was 55 nM.

For `CCOc1cc(F)ccc1-c1sc2c(NN=Cc3cccs3)ncnc2c1O` [Compound 109, 2-Thiophenecarboxaldehyde (6-(2-ethoxy-4-fluorophenyl)-7-hydroxythieno[3,2-d]pyrimidin-4-yl)hydrazone], which IC50 is on record?
Its IC50 is 1.1 nM.

For `CCOc1ccccc1-c1sc2c(NN=Cc3c[nH]c(=O)[nH]c3=O)ncnc2c1O` [Compound 113, 2,4-Dioxo-1,2,3,4-tetrahydro-pyrimidine-5-carbaldehyde (6-(2-ethoxyphenyl)-7-hydroxythieno[3,2-d]pyrimidin-4-yl)hydrazone], which IC50 is on record?
The IC50 was 28 nM.

Which IC50 does the source give for `CCOc1ccccc1-c1sc2c(NN=Cc3ccc(C(=O)OC)cc3)ncnc2c1O` [Compound 120, Methyl 4-formyl benzoate (6-(2-ethoxyphenyl)-7-hydroxythieno[3,2-d]pyrimidin-4-yl)hydrazone] here?
Its IC50 is 5.9 nM.
